Results published in article PMC5355235, “FLT3 activating mutations display differential sensitivity to multiple tyrosine kinase inhibitors” (Oncotarget, 2017).
Positions count from the first letter of the chain named.

Assays:
wild-type FLT3 = target: T1, wild-type FLT3 (Homo sapiens, UniProt P36888); experiment: Wild-type FLT3 autophosphorylation in FL-stimulated BaF3/WT-FLT3 cells; type: cell-based; conditions: TKI 1 h, then 25 ng/ml human FLT3 ligand 15 min
T1 construct: expressed in transfected cells; host or cells: BaF3
T1 sequence (P36888 27-993): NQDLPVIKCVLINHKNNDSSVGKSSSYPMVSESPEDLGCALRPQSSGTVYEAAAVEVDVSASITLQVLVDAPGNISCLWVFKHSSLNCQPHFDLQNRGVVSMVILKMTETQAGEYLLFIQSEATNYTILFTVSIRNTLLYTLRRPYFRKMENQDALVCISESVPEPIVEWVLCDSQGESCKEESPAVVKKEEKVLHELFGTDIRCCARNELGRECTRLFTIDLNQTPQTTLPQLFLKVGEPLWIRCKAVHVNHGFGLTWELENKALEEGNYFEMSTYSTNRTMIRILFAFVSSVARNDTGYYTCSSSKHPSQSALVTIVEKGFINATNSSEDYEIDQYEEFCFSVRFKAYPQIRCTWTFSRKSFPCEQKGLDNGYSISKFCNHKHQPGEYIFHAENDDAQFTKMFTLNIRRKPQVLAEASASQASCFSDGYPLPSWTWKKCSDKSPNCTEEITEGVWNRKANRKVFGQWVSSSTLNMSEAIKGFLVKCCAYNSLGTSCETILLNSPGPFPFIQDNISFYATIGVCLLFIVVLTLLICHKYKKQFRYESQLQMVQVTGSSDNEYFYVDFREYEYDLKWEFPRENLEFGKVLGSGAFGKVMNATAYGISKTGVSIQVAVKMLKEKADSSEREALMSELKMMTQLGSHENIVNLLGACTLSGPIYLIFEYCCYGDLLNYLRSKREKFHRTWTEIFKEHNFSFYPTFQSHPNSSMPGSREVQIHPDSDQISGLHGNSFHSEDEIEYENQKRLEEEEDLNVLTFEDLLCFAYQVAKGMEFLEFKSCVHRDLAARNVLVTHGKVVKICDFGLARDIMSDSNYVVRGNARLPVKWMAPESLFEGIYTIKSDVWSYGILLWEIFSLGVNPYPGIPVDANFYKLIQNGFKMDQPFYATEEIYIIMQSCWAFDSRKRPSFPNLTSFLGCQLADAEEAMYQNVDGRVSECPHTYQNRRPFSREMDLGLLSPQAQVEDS
Experimental: Figure 3 Inhibition of wild-type FLT3 signaling pathways by FLT3 TKI BaF3/WT-FLT3 cells were treated with FLT3 TKI at the indicated concentrations for 1 h at 37°C then stimulated with 25ng/ml of human FLT3 ligand for 15 minutes, followed by immunoprecipitation for FLT3, SDS-PAGE and WB for FLT3 and phospho-FLT3 (PFLT3).
Activated FLT3 expression was measured by performing immunoprecipitation, SDS-PAGE and Western blotting as previously described. […] Specifically, 10^7 cells were washed in medium and treated with inhibitor for 1 h followed by stimulation with 25 ng/ml of FLT3 ligand for 15 minutes where indicated. Cells were washed twice with ice-cold PBS and lysed in 300 µl of NP-40 lysis buffer (150 mM NaCl, 20 mM TrisHCl (pH7.4), 10% glycerol, 1% NP-40, 10 mM EDTA, 100 mM NaF) with 2 mM Na3VO4 and protease inhibitors (Complete Tablets, Roche, Mannheim, Germany) at 4°C for 30 m. Cell lysate was harvested by centrifugation at 13,000 × g for 30 m at 4°C. FLT3 S-18 antibody was incubated with 500 µg lysate overnight at 4°C followed by immunoprecipitation with protein A-agarose beads for 2 h. Beads were washed once in Tris buffered saline with 1% Tween-20 (TBST) and twice in TBS. […] Proteins were transferred to a polyvinyl diflouride (PVDF) membrane (Millipore, Bedford, MA, USA) and detected by 4G10 phosphotyrosine antibody and anti-FLT3 S-18 antibody. […]

FLT3 D835Y = target: T2, FLT3 D835Y (Homo sapiens, UniProt P36888, D835Y); experiment: FLT3 autophosphorylation, immunoprecipitation/Western blot, D835Y; type: cell-based; conditions: FLT3 D835Y cells, highest concentrations tested, 1 h
T2 construct: expressed in transfected cells; host or cells: BaF3
T2 sequence (P36888 27-993 D835Y): T1 sequence (P36888 27-993) with D809Y
Experimental: Activated FLT3 expression was measured by performing immunoprecipitation, SDS-PAGE and Western blotting as previously described. Specifically, 10^7 cells were washed in medium and treated with inhibitor for 1 h followed by stimulation with 25 ng/ml of FLT3 ligand for 15 minutes where indicated. Cells were washed twice with ice-cold PBS and lysed in 300 µl of NP-40 lysis buffer (150 mM NaCl, 20 mM TrisHCl (pH7.4), 10% glycerol, 1% NP-40, 10 mM EDTA, 100 mM NaF) with 2 mM Na3VO4 and protease inhibitors (Complete Tablets, Roche, Mannheim, Germany) at 4°C for 30 m. Cell lysate was harvested by centrifugation at 13,000 × g for 30 m at 4°C. FLT3 S-18 antibody was incubated with 500 µg lysate overnight at 4°C followed by immunoprecipitation with protein A-agarose beads for 2 h. Beads were washed once in Tris buffered saline with 1% Tween-20 (TBST) and twice in TBS. Samples were boiled in sodium dodecyl sulfate (SDS) sample buffer prior to separating in a 8% SDS-polyacrylamide gel (SDS-PAGE). Proteins were transferred to a polyvinyl diflouride (PVDF) membrane (Millipore, Bedford, MA, USA) and detected by 4G10 phosphotyrosine antibody and anti-FLT3 S-18 antibody. FLT3 was visualized using the Odyssey Infra Red Imaging System from Li-Cor (Lincoln, NE, USA) using AlexaFluor 680 goat anti-mouse and AlexaFluor 800 goat anti-rabbit antibodies. […]

IC50 (wild-type FLT3): 500 nM
Inhibition of FLT3 autophosphorylation (FLT3 D835Y): markedly reduced or absent inhibition
SMILES: Cc1cc2ncc(-c3ccccc3)nc2cc1C [AG1295]
